The record followed here is patent US20250002507A1, “7,8-DIHYDRO-5H-1,6-NAPHTHYRIDINE DERIVATIVES AS POSITIVE ALLOSTERIC MODULATORS OF THE MUSCARINIC ACETYLCHOLINE RECEPTOR M4 FOR TREATING NEUROLOGICAL AND PSYCHIATRIC DISORDERS” (Vanderbilt University, priority 2021, published 2025).

In the assay the target is T1, Human M4 (Homo sapiens, UniProt P08173).
T1 construct: expressed in transfected cells
T1 sequence (P08173 1-479): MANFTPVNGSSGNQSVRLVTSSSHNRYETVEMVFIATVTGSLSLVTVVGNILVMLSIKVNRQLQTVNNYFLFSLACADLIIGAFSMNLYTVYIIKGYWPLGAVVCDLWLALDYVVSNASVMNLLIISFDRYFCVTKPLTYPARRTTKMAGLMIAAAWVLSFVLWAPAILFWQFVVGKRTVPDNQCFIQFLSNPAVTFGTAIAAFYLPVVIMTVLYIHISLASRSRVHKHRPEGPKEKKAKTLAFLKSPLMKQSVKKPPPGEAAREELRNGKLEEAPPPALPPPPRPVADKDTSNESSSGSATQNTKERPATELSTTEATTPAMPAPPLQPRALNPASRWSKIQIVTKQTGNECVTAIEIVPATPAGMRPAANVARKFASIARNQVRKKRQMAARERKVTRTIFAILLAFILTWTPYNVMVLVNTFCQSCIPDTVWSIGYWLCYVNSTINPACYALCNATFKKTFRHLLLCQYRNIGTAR
The assay can be described thus: mAChR M4 cell-based functional assay (calcium flux, potentiation of EC20 acetylcholine response), hM4-Gqi5 CHO-K1 cells. The following applies: for Emax at 30 µM: CHO-K1, % ACh maximum at 30 μM, human M4, read-out: Emax; for EC50: hM4-Gqi5 CHO-K1 cells, calcium flux, PAM of EC20 acetylcholine, read-out: Human M4 EC50. Summed up:
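CHO-K1 cells stably expressing human M4 with chimeric Gqi5, loaded with Fluo-4 AM 50 min at 37 °C; calcium flux read by FDSS. 11-point 1:3 compound curves added, then EC20 acetylcholine at 144 s; potentiation of the EC20 response fitted by four-parameter logistic to give EC50 and Emax.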

Usually Emax stands for the maximal effect, on the per cent scale that the assay sets. As a reminder, the EC50 is the midpoint of the concentration-response curve. With `Cc1c(N2CCc3ncc(-c4cnn(Cc5ccccc5)c4)cc3C2)nn2cnnc2c1C` [Compound 63, 3-(1-benzylpyrazol-4-yl)-6-(7,8-dimethyl-[1,2,4]triazolo[4,3-b]pyridazin-6-yl)-7,8-dihydro-5H-1,6-naphthyridine], the Emax at 30 µM is 94% and the half-maximal effective concentration (EC50) stood at 262 nM.

As for `Cc1c(N2CCc3ncc(Nc4c(F)cccc4Cl)cc3C2)nn2cnnc2c1C` [Compound 64, N-(2-chloro-6-fluoro-phenyl)-6-(7,8-dimethyl-[1,2,4]triazolo[4,3-b]pyridazin-6-yl)-7,8-dihydro-5H-1,6-naphthyridin-3-amine], the maximum response (Emax) at 30 µM amounted to 96% and the EC50 was determined as 788 nM.

As to `COc1cccc(Nc2cnc3c(c2)CN(c2nn4cnnc4c(C)c2C)CC3)c1F` [Compound 65, 6-(7,8-dimethyl-[1,2,4]triazolo[4,3-b]pyridazin-6-yl)-N-(2-fluoro-3-methoxy-phenyl)-7,8-dihydro-5H-1,6-naphthyridin-3-amine], the maximal response (Emax) at 30 µM came to 104% and the concentration giving a half-maximal response (EC50) stood at 188 nM.

Regarding `Cc1c(N2CCc3ncc(Nc4cccc(C(F)(F)F)c4F)cc3C2)nn2cnnc2c1C` [Compound 66, 6-(7,8-dimethyl-[1,2,4]triazolo[4,3-b]pyridazin-6-yl)-N-[2-fluoro-3-(trifluoromethyl)phenyl]-7,8-dihydro-5H-1,6-naphthyridin-3-amine], the Emax at 30 µM was found to be 95% and the concentration giving a half-maximal response (EC50) turned out to be 882 nM.

With `Cc1c(N2CCc3ncc(Nc4cccc(Cl)c4F)cc3C2)nn2cnnc2c1C` [Compound 67, N-(3-chloro-2-fluoro-phenyl)-6-(7,8-dimethyl-[1,2,4]triazolo[4,3-b]pyridazin-6-yl)-7,8-dihydro-5H-1,6-naphthyridin-3-amine], the Emax at 30 µM is 86% and the concentration giving a half-maximal response (EC50) is 219 nM.

For the compound `Cc1c(N2CCc3ncc(Nc4ccc(Cl)cc4F)cc3C2)nn2cnnc2c1C` [Compound 68, N-(4-chloro-2-fluoro-phenyl)-6-(7,8-dimethyl-[1,2,4]triazolo[4,3-b]pyridazin-6-yl)-7,8-dihydro-5H-1,6-naphthyridin-3-amine], the maximal effect (Emax) at 30 µM was found to be 96% and the 50% effective concentration (EC50) turned out to be 386 nM.

As to `Cc1ccc(F)c(Nc2cnc3c(c2)CN(c2nn4cnnc4c(C)c2C)CC3)c1` [Compound 69, 6-(7,8-dimethyl-[1,2,4]triazolo[4,3-b]pyridazin-6-yl)-N-(2-fluoro-5-methyl-phenyl)-7,8-dihydro-5H-1,6-naphthyridin-3-amine], the maximal response (Emax) at 30 µM stood at 90% and the EC50 was found to be 296 nM.

As for `Cc1c(N2CCc3ncc(Nc4ccc(F)cc4F)cc3C2)nn2cnnc2c1C` [Compound 70, N-(2,4-difluorophenyl)-6-(7,8-dimethyl-[1,2,4]triazolo[4,3-b]pyridazin-6-yl)-7,8-dihydro-5H-1,6-naphthyridin-3-amine], the maximal response (Emax) at 30 µM was found to be 101% and the EC50 was found to be 205 nM.

Take `[2H]c1nnc2c(C)c(C)c(N3CCc4ncc(Nc5ccccc5F)cc4C3)nn12` [Compound 71, 6-(3-deuterio-7,8-dimethyl-[1,2,4]triazolo[4,3-b]pyridazin-6-yl)-N-(2-fluorophenyl)-7,8-dihydro-5H-1,6-naphthyridin-3-amine]: the Emax at 30 µM worked out at 102% and the concentration for a half-maximal effect (EC50) came out at 65.6 nM.

Consider `[2H]c1nnc2c(C)c(C)c(N3CCc4ncc(Nc5cc(F)ccc5F)cc4C3)nn12` [Compound 72, 6-(3-deuterio-7,8-dimethyl-[1,2,4]triazolo[4,3-b]pyridazin-6-yl)-N-(2,5-difluorophenyl)-7,8-dihydro-5H-1,6-naphthyridin-3-amine], for which the maximal response (Emax) at 30 µM is 97% and the concentration giving a half-maximal response (EC50) is 49.7 nM.

For the compound `[2H]c1nnc2c(C)c(C)c(N3CCc4ncc(Nc5cc(F)cc(F)c5F)cc4C3)nn12` [Compound 73, 6-(3-deuterio-7,8-dimethyl-[1,2,4]triazolo[4,3-b]pyridazin-6-yl)-N-(2,3,5-trifluorophenyl)-7,8-dihydro-5H-1,6-naphthyridin-3-amine], the Emax at 30 µM is 92% and the EC50 turned out to be 114 nM.

Take `[2H]c1nnc2c(C)c(C)c(N3CCc4ncc(-c5c(C)noc5C)cc4C3)nn12` [Compound 74, 4-[6-(3-deuterio-7,8-dimethyl-[1,2,4]triazolo[4,3-b]pyridazin-6-yl)-7,8-dihydro-5H-1,6-naphthyridin-3-yl]-3,5-dimethyl-isoxazole]: the maximal effect (Emax) at 30 µM is 103% and the EC50 amounted to 108 nM.

As to `[2H]c1nnc2c(C)c(C)c(N3CCc4ncc(-c5c(C)nn(C)c5C)cc4C3)nn12` [Compound 75, 6-(3-deuterio-7,8-dimethyl-[1,2,4]triazolo[4,3-b]pyridazin-6-yl)-3-(1,3,5-trimethylpyrazol-4-yl)-7,8-dihydro-5H-1,6-naphthyridine], the maximal effect (Emax) at 30 µM was 99% and the concentration for a half-maximal effect (EC50) is 164 nM.

On to `[2H]c1nnc2c(C)c(C)c(N3CCc4ncc(-c5cn(C)nc5C)cc4C3)nn12` [Compound 76, 6-(3-deuterio-7,8-dimethyl-[1,2,4]triazolo[4,3-b]pyridazin-6-yl)-3-(1,3-dimethylpyrazol-4-yl)-7,8-dihydro-5H-1,6-naphthyridine], for which the maximal response (Emax) at 30 µM is 101% and the EC50 came to 127 nM.

For the compound `[2H]c1nnc2c(C)c(C)c(N3CCc4ncc(-c5cnn(CC6CC6)c5)cc4C3)nn12` [Compound 77, 3-[1-(cyclopropylmethyl)pyrazol-4-yl]-6-(3-deuterio-7,8-dimethyl-[1,2,4]triazolo[4,3-b]pyridazin-6-yl)-7,8-dihydro-5H-1,6-naphthyridine], the maximal effect (Emax) at 30 µM is 89% and the EC50 was determined as 216 nM.

For `[2H]c1nnc2c(C)c(C)c(N3CCc4ncc(-c5cncs5)cc4C3)nn12` [Compound 78, 5-[6-(3-deuterio-7,8-dimethyl-[1,2,4]triazolo[4,3-b]pyridazin-6-yl)-7,8-dihydro-5H-1,6-naphthyridin-3-yl]thiazole], the Emax at 30 µM was found to be 92% and the EC50 stood at 63.9 nM.

Turning to `Cc1c(N2CCc3ncc(Nc4ncc(F)cc4F)cc3C2)nn2cnnc2c1C` [Compound 79, N-(3,5-difluoro-2-pyridyl)-6-(7,8-dimethyl-[1,2,4]triazolo[4,3-b]pyridazin-6-yl)-7,8-dihydro-5H-1,6-naphthyridin-3-amine], the Emax at 30 µM was determined as 62% and the concentration for a half-maximal effect (EC50) came out at 180 nM.

As to `Cc1c(N2CCc3ncc(Nc4ncccc4F)cc3C2)nn2cnnc2c1C` [Compound 80, 6-(7,8-dimethyl-[1,2,4]triazolo[4,3-b]pyridazin-6-yl)-N-(3-fluoro-2-pyridyl)-7,8-dihydro-5H-1,6-naphthyridin-3-amine], the maximal response (Emax) at 30 µM is 72% and the concentration giving a half-maximal response (EC50) was 176 nM.

Regarding `Cc1ccc(Nc2cnc3c(c2)CN(c2nn4cnnc4c(C)c2C)CC3)c(F)n1` [Compound 81, 6-(7,8-dimethyl-[1,2,4]triazolo[4,3-b]pyridazin-6-yl)-N-(2-fluoro-6-methyl-3-pyridyl)-7,8-dihydro-5H-1,6-naphthyridin-3-amine], the Emax at 30 µM came out at 94% and the half-maximal effective concentration (EC50) stood at 169 nM.

`Cc1c(N2CCc3ncc(Nc4cccnc4F)cc3C2)nn2cnnc2c1C` [Compound 82, 6-(7,8-dimethyl-[1,2,4]triazolo[4,3-b]pyridazin-6-yl)-N-(2-fluoro-3-pyridyl)-7,8-dihydro-5H-1,6-naphthyridin-3-amine]: the Emax at 30 µM came out at 99% and the 50% effective concentration (EC50) was found to be 119 nM.

As for `Cc1c(N2CCc3ncc(Nc4ccccc4F)cc3C2)nn2c(C)nnc2c1C` [Compound 83, N-(2-fluorophenyl)-6-(3,7,8-trimethyl-[1,2,4]triazolo[4,3-b]pyridazin-6-yl)-7,8-dihydro-5H-1,6-naphthyridin-3-amine], the Emax at 30 µM amounted to 99% and the EC50 stood at 361 nM.

With `Cc1c(N2CCc3ncc(Nc4cc(F)ccc4F)cc3C2)nn2c(C)nnc2c1C` [Compound 84, N-(2,5-difluorophenyl)-6-(3,7,8-trimethyl-[1,2,4]triazolo[4,3-b]pyridazin-6-yl)-7,8-dihydro-5H-1,6-naphthyridin-3-amine], the Emax at 30 µM is 99% and the EC50 was 210 nM.

With `Cc1c(N2CCc3ncc(Nc4cc(F)cc(F)c4F)cc3C2)nn2c(C)nnc2c1C` [Compound 85, N-(2,3,5-trifluorophenyl)-6-(3,7,8-trimethyl-[1,2,4]triazolo[4,3-b]pyridazin-6-yl)-7,8-dihydro-5H-1,6-naphthyridin-3-amine], the maximal response (Emax) at 30 µM came to 92% and the half-maximal effective concentration (EC50) was 352 nM.

`Cc1noc(C)c1-c1cnc2c(c1)CN(c1nn3c(C)nnc3c(C)c1C)CC2` [Compound 86, 3,5-dimethyl-4-[6-(3,7,8-trimethyl-[1,2,4]triazolo[4,3-b]pyridazin-6-yl)-7,8-dihydro-5H-1,6-naphthyridin-3-yl]isoxazole]: the maximal effect (Emax) at 30 µM came out at 84% and the EC50 worked out at 227 nM.

In the case of `Cc1nn(C)c(C)c1-c1cnc2c(c1)CN(c1nn3c(C)nnc3c(C)c1C)CC2` [Compound 87, 3-(1,3,5-trimethylpyrazol-4-yl)-6-(3,7,8-trimethyl-[1,2,4]triazolo[4,3-b]pyridazin-6-yl)-7,8-dihydro-5H-1,6-naphthyridine], the Emax at 30 µM came out at 89% and the concentration giving a half-maximal response (EC50) was 188 nM.
